From PubChem BioAssay AID248 (DTP/NCI, 2004)
“And” between values parts separate entries of the source, which are not always exact repeats. Identical values can stand only once. Inconclusive results and toxic doses are left out. Rule as the data show it: active = T/C of 150% or more; inactive = T/C below 125%.

Test system: L1210 leukemia ip in BDF1 mice, survival T/C
Assay: NCI In Vivo Anticancer Drug Screen. Data for tumor model L1210 Leukemia (intraperitoneal) in B6D2F1 (BDF1) mice
Details: endpoint: mean survival time, higher = longer survival
In short: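 Transplanted-tumor mice were given test agent; controls received vehicle only. Survival readings from the two groups were divided (treated over control).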

[1] = dose: 100.0 mg/kg/injection, schedule: Q04DX003 (ip), vehicle: Klucel (hydroxypropylcellulose) (HPC)
[2] = dose: 50.0 mg/kg/injection, schedule: Q01DX009 (ip), vehicle: saline
[3] = dose: 100.0 mg/kg/injection, schedule: Q01DX009 (ip), vehicle: saline
[4] = dose: 200.0 mg/kg/injection, schedule: Q01DX009 (ip), vehicle: saline
[5] = dose: 100.0 mg/kg/injection, schedule: Q01DX001 (ip), vehicle: saline
[6] = dose: 200.0 mg/kg/injection, schedule: Q01DX001 (ip), vehicle: saline
[7] = dose: 100.0 mg/kg/injection, schedule: Q01DX009 (ip), vehicle: Klucel (hydroxypropylcellulose) (HPC)
[8] = dose: 200.0 mg/kg/injection, schedule: Q01DX009 (ip), vehicle: Klucel (hydroxypropylcellulose) (HPC)
[9] = dose: 200.0 mg/kg/injection, schedule: Q04DX003 (ip), vehicle: Klucel (hydroxypropylcellulose) (HPC)
[10] = dose: 400.0 mg/kg/injection, schedule: Q01DX009 (ip), vehicle: Klucel (hydroxypropylcellulose) (HPC)
[11] = dose: 400.0 mg/kg/injection, schedule: Q04DX003 (ip), vehicle: Klucel (hydroxypropylcellulose) (HPC)
[12] = dose: 100.0 mg/kg/injection, schedule: Q01DX001 (ip), vehicle: carboxymethylcellulose (CMC)
[13] = dose: 200.0 mg/kg/injection, schedule: Q01DX001 (ip), vehicle: carboxymethylcellulose (CMC)
[14] = dose: 100.0 mg/kg/injection, schedule: Q04DX002 (ip), vehicle: Klucel (hydroxypropylcellulose) (HPC)
[15] = dose: 200.0 mg/kg/injection, schedule: Q04DX002 (ip), vehicle: Klucel (hydroxypropylcellulose) (HPC)
[16] = dose: 400.0 mg/kg/injection, schedule: Q04DX002 (ip), vehicle: Klucel (hydroxypropylcellulose) (HPC)
[17] = dose: 400.0 mg/kg/injection, schedule: Q01DX001 (ip), vehicle: carboxymethylcellulose (CMC)
[18] = dose: 400.0 mg/kg/injection, schedule: Q01DX001 (ip), vehicle: saline
[19] = dose: 25.0 mg/kg/injection, schedule: Q01DX009 (ip), vehicle: saline
[20] = dose: 100.0 mg/kg/injection, schedule: Q04DX003 (ip), vehicle: saline

Measured: T/C

CC(NC(=O)NCCCl)C(O)c1ccccc1 (centres undefined)
inactive: dose: 20.0 mg/kg/injection, schedule: Q04DX003 (ip), vehicle: Klucel (hydroxypropylcellulose) (HPC) 103 % of control | dose: 40.0 mg/kg/injection, schedule: Q04DX003 (ip), vehicle: Klucel (hydroxypropylcellulose) (HPC) 96 % of control | dose: 80.0 mg/kg/injection, schedule: Q04DX003 (ip), vehicle: Klucel (hydroxypropylcellulose) (HPC) 102 % of control | [1] 100 % of control

COc1cccc(/C=N/N=C(N)N)c1
inactive: dose: 15.0 mg/kg/injection, schedule: Q01DX Z (ip), vehicle: saline 94 % of control | dose: 30.0 mg/kg/injection, schedule: Q01DX Z (ip), vehicle: saline 97 % of control | dose: 30.0 mg/kg/injection, schedule: Q01DX Z (oral), vehicle: saline 104 % of control | dose: 60.0 mg/kg/injection, schedule: Q01DX Z (ip), vehicle: saline 92 % of control | dose: 60.0 mg/kg/injection, schedule: Q01DX Z (oral), vehicle: saline 104 % of control | dose: 120.0 mg/kg/injection, schedule: Q01DX Z (oral), vehicle: saline 101 % of control

CCN(CC)CCOC(=O)c1ccc(OCCOc2ccc(C(C)(C)CC(C)(C)C)cc2)c([N+](=O)[O-])c1
inactive: dose: 100.0 mg/kg/injection, schedule: Q04DX003 (ip), vehicle: saline sonified 96 % of control | dose: 200.0 mg/kg/injection, schedule: Q04DX003 (ip), vehicle: saline sonified 87 % of control | dose: 400.0 mg/kg/injection, schedule: Q04DX003 (ip), vehicle: saline sonified 98 % of control

CCNC(C)(C)C(=O)c1ccco1
inactive: [2] 94 % of control | [3] 100 % of control | [4] 94 % of control

CCOC(=O)C(C(=O)O)C(C)C (centres undefined)
inactive: [5] 97 % of control | [6] 93 % of control

CCCCCOc1ccc(C(=O)CC(=O)OCC)cc1
inactive: [7] 98 % of control | [1] 93 % of control | [8] 104 % of control | [9] 95 % of control | [10] 93 % of control | [11] 93 % of control

NC(CSCc1ccccc1)C(=O)O (centres undefined)
inactive: dose: 7.0 mg/kg/injection, schedule: Q01DX015 (ip), vehicle: saline 97 % of control | dose: 15.0 mg/kg/injection, schedule: Q01DX015 (ip), vehicle: saline 97 % of control | dose: 29.0 mg/kg/injection, schedule: Q01DX015 (ip), vehicle: saline 101 % of control | dose: 50.0 mg/kg/injection, schedule: Q01DX001 (ip), vehicle: carboxymethylcellulose (CMC) 89 % of control | dose: 58.0 mg/kg/injection, schedule: Q01DX015 (ip), vehicle: saline 97 % of control | [12] 101 % of control | [1] 100 % of control | dose: 117.0 mg/kg/injection, schedule: Q01DX015 (ip), vehicle: saline 97 % of control | [13] 89 % of control | [9] 94 % of control | dose: 233.0 mg/kg/injection, schedule: Q01DX015 (ip), vehicle: saline 95 % of control | [11] 96 % of control

CON1C(=O)c2ccccc2S1=O (centres undefined)
inactive: [14] 96 % of control | [15] 92 % of control

OC1CC2(c3ccccc3)OC1(c1ccccc1)c1ccccc12 (centres undefined)
inactive: [14] 112 % of control | [15] 101 % of control | [16] 115 % of control

Cc1c(C(C)(C)C)cc(C(C)(C)C)c(O)c1[N+](=O)[O-]
inactive: [12] 93 % of control and 95 % of control | dose: 100.0 mg/kg/injection, schedule: Q04DX002 (ip), vehicle: carboxymethylcellulose (CMC) 90 % of control and 91 % of control | dose: 100.0 mg/kg/injection, schedule: Q04DX003 (ip), vehicle: carboxymethylcellulose (CMC) 97 % of control and 98 % of control | [13] 95 % of control and 99 % of control and 111 % of control | dose: 200.0 mg/kg/injection, schedule: Q04DX002 (ip), vehicle: carboxymethylcellulose (CMC) 87 % of control and 89 % of control | dose: 200.0 mg/kg/injection, schedule: Q04DX003 (ip), vehicle: carboxymethylcellulose (CMC) 96 % of control and 90 % of control | [17] 94 % of control and 101 % of control and 105 % of control | dose: 400.0 mg/kg/injection, schedule: Q04DX002 (ip), vehicle: carboxymethylcellulose (CMC) 96 % of control and 111 % of control | dose: 400.0 mg/kg/injection, schedule: Q04DX003 (ip), vehicle: carboxymethylcellulose (CMC) 96 % of control and 87 % of control

NC(CC(=O)O)C(=O)O (centres undefined)
inactive: [12] 94 % of control | [5] 102 % of control and 95 % of control | [3] 97 % of control | [14] 98 % of control | [13] 89 % of control | [6] 96 % of control and 93 % of control | [4] 100 % of control | [15] 98 % of control | [17] 92 % of control | [18] 102 % of control and 90 % of control | dose: 400.0 mg/kg/injection, schedule: Q01DX009 (ip), vehicle: saline 97 % of control | dose: 400.0 mg/kg/injection, schedule: Q01DX030 (sc), vehicle: other 97 % of control | [16] 95 % of control | dose: 800.0 mg/kg/injection, schedule: Q01DX030 (sc), vehicle: other 96 % of control

C1OCOCO1
inactive: [19] 92 % of control | [2] 97 % of control | [3] 95 % of control | [4] 97 % of control

Cc1nc(N=C(N)N)nc2ccc(Cl)cc12
inactive: dose: 18.8 mg/kg/injection, schedule: Q04DX003 (ip), vehicle: saline 96 % of control | dose: 37.5 mg/kg/injection, schedule: Q04DX003 (ip), vehicle: saline 105 % of control | dose: 75.0 mg/kg/injection, schedule: Q01DX001 (ip), vehicle: saline 101 % of control | dose: 75.0 mg/kg/injection, schedule: Q04DX003 (ip), vehicle: saline 100 % of control

CCN(C(=O)c1ccc(C(=O)N(CC)c2ccccc2)cc1)c1ccccc1
inactive: dose: 100.0 mg/kg/injection, schedule: Q04DX003 (ip), vehicle: saline with Tween-80 96 % of control | dose: 200.0 mg/kg/injection, schedule: Q04DX003 (ip), vehicle: saline with Tween-80 91 % of control | dose: 400.0 mg/kg/injection, schedule: Q04DX003 (ip), vehicle: saline with Tween-80 91 % of control

CC(=O)Oc1c2ccsc2cc2ccsc12
inactive: dose: 100.0 mg/kg/injection, schedule: Q01DX001 (ip), vehicle: saline with Tween-80 100 % of control | dose: 200.0 mg/kg/injection, schedule: Q01DX001 (ip), vehicle: saline with Tween-80 96 % of control | dose: 400.0 mg/kg/injection, schedule: Q01DX001 (ip), vehicle: saline with Tween-80 96 % of control

CC[N+](CC)(CC)CCOC(=O)C1C2CC3OC(=O)C1C3C2 (centres undefined)
inactive: [20] 96 % of control

CCCS(=O)(=O)N1CCCC(C)C1 (centres undefined)
inactive: [14] 94 % of control | [15] 97 % of control | [16] 97 % of control

CCCCNC(=O)Nc1ccccc1OCC
inactive: [7] 93 % of control | [1] 94 % of control | [8] 92 % of control | [9] 104 % of control | [10] 97 % of control | [11] 94 % of control

C=COC(=O)c1ccccc1 (tested in a mixture with another compound)
inactive: dose: 100.0 mg/kg/injection, schedule: Q01DX001 (ip), vehicle: other 97 % of control | [5] 110 % of control [middle of 4 runs] | dose: 200.0 mg/kg/injection, schedule: Q01DX001 (ip), vehicle: other 97 % of control | [6] 97 % of control and 105 % of control and 108 % of control | dose: 400.0 mg/kg/injection, schedule: Q01DX001 (ip), vehicle: other 86 % of control | [18] 101 % of control and 105 % of control and 108 % of control

CCCCCCC(=O)CC(C)C
inactive: [7] 101 % of control | [1] 97 % of control | [8] 103 % of control | [9] 102 % of control | [10] 109 % of control | [11] 107 % of control

COc1ccc(CCNC(=S)NCCc2ccc(OC)c(OC)c2)cc1OC
inactive: [19] 100 % of control | [2] 92 % of control | [3] 98 % of control | [20] 86 % of control | [4] 92 % of control | dose: 200.0 mg/kg/injection, schedule: Q04DX003 (ip), vehicle: saline 86 % of control

COc1ccccc1C(=O)P(=O)(OC)OC
inactive: [5] 104 % of control | [6] 93 % of control | [18] 95 % of control
